Laboratory results from ChEMBL document CHEMBL5034015, “Structure-Based Optimization of 3-Phenyl-N-(2-(3-phenylureido)ethyl)thiophene-2-sulfonamide Derivatives as Selective Mcl-1 Inhibitors” (J Med Chem, 2021).
Active and inactive are the calls of the source.

Tests used:
HEK-293T = assay: Cytotoxicity against HEK293T cells assessed as reduction in cell viability incubated for 48 hrs by CCK8 assay; conditions: Homo sapiens
[1] = molecular target: Induced myeloid leukemia cell differentiation protein Mcl-1 (Homo sapiens, UniProt Q07820); assay: Binding affinity to full length human MCL1 expressed in Escherichia coli BL21 (DE3) at up to 100 uM preincubated for 30 mins followed by 5-FAM-QEDIIIINIARHLAQVGDSMD-RSIPPG tracer addition and measured after 20 mins by fluorescence polarization assay; conditions: dose microM <=100, time 50.0 min
HeLa = assay: cells; conditions: Homo sapiens, 48 h
Description: Cytotoxicity against human HeLa cells assessed as inhibition of cell growth incubated for 48 hrs by CCK8 assay

[2] = molecular target: Apoptosis regulator Bcl-2 (Homo sapiens, UniProt P10415); assay: Binding affinity to full length human Bcl-2 expressed in Escherichia coli BL21 (DE3) at up to 100 uM preincubated for 30 mins followed by 5-FAM-QEDIIIINIARHLAQVGDSMD-RSIPPG tracer addition and measured after 20 mins by fluorescence polarization assay; conditions: dose microM <=100, time 50.0 min
HL-60 = assay: cells; conditions: Homo sapiens, HL-60, 48 h
Description: Cytotoxicity against human HL-60 cells assessed as inhibition of cell growth incubated for 48 hrs by CCK8 assay

Bcl-2-like protein 1 = Bcl-2-like protein 1 (Homo sapiens, UniProt Q07817); assay: Binding affinity to full length human Bcl-xl expressed in Escherichia coli BL21 (DE3) at up to 100 uM preincubated for 30 mins followed by 5-FAM-QEDIIIINIARHLAQVGDSMD-RSIPPG tracer addition and measured after 20 mins by fluorescence polarization assay; conditions: dose microM <=100, time 50.0 min
RS4-11 = assay: cells; conditions: Homo sapiens, RS4-11, 48 h
Description: Cytotoxicity against human RS4-11 cells assessed as inhibition of cell growth incubated for 48 hrs by CCK8 assay

Chain of Bcl-2-like protein 1 (Q07817 whole entry): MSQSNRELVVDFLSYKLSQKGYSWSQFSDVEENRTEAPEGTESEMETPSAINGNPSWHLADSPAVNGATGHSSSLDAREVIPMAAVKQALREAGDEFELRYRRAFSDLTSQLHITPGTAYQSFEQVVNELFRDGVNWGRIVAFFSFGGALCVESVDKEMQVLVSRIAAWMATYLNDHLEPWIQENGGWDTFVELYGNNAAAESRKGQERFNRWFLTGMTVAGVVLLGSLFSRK
Chain of Apoptosis regulator Bcl-2 (P10415 whole entry): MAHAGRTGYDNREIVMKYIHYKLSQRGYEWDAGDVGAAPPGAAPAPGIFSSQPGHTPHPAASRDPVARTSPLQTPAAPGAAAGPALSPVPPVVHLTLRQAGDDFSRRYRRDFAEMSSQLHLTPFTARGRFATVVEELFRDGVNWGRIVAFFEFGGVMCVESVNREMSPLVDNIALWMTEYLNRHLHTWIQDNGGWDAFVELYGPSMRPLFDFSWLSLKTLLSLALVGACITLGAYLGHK
Chain of Induced myeloid leukemia cell differentiation protein Mcl-1 (Q07820 whole entry): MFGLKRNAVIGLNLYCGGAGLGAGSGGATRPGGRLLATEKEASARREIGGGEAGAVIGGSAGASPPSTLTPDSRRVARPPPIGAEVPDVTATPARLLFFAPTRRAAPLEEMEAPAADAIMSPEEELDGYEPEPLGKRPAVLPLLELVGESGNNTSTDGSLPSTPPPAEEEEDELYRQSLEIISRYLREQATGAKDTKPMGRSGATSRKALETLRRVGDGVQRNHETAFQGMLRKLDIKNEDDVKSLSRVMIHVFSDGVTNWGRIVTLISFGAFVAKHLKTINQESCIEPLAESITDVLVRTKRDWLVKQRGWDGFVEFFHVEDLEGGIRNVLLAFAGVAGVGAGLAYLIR

| SMILES | IC50 (HEK-293T) [µM] | Activity [1] | IC50 (HeLa) [µM] | Activity [2] | IC50 (HL-60) [µM] | Activity (Bcl-2-like protein 1) | IC50 (RS4-11) [µM] |
| --- | --- | --- | --- | --- | --- | --- | --- |
| O=C(NCCNS(=O)(=O)c1ccc(-c2ccccc2O[C@H]2CC[C@H](O)CC2)s1)Nc1ccc([N+](=O)[O-])cc1 | 9 | inactive | 10.5 | inactive | 8.9 | inactive | 4.1 |
| O=C(NCCNS(=O)(=O)c1ccc(-c2ccccc2Oc2ccc([N+](=O)[O-])c([N+](=O)[O-])c2)s1)Nc1cc(Cl)cc(Cl)c1 | > 20 | inactive | > 20 | inactive | 2.3 | inactive | 2.1 |
| O=C(NCCNS(=O)(=O)c1ccc(-c2ccccc2OCc2cccc(O)c2)s1)Nc1cc(C(F)(F)F)cc(C(F)(F)F)c1 | > 20 | inactive | 17.3 | inactive | 4 | inactive | 3 |
| COc1ccc(Oc2ccc(C(C)C)cc2-c2ccsc2S(=O)(=O)NCCNC(=S)Nc2ccc([N+](=O)[O-])cc2)cc1OC | 11.4 | inactive | 11.9 | inactive | 11.2 | inactive | 5.8 |
| Cc1cc(C)cc(NC(=O)NCCNS(=O)(=O)c2ccc(-c3ccccc3Oc3ccc([N+](=O)[O-])c([N+](=O)[O-])c3)s2)c1 | > 50 | inactive | 12 | inactive | 9.1 | inactive | 3.6 |
| COc1ccc(NC(=S)NCCNS(=O)(=O)c2sccc2-c2ccc(C)cc2Oc2ccc(O)c(O)c2)cc1 | > 20 | inactive | > 20 | inactive | 4.1 | inactive | 8.3 |
| O=C(NCCNS(=O)(=O)c1ccc(-c2ccccc2OCc2cccc(O)c2)s1)Nc1cc(Cl)cc(Cl)c1 | > 20 | inactive | > 50 | inactive | 2.8 | inactive | > 50 |
| O=C(NCCNS(=O)(=O)c1ccc(-c2ccccc2O[C@H]2CC[C@@H](O)CC2)s1)Nc1ccc([N+](=O)[O-])cc1 | 8.6 | inactive | > 20 | inactive | > 20 | inactive | 12.4 |
| O=C(NCCNS(=O)(=O)c1ccc(-c2ccccc2O[C@H]2CC[C@@H](O)CC2)s1)Nc1cc(C(F)(F)F)cc(C(F)(F)F)c1 | 14.1 | inactive | 14.1 | inactive | 3.1 | inactive | 9.3 |
| COc1ccc(NC(=O)NCCNS(=O)(=O)c2ccc(-c3ccccc3OCc3cccc(O)c3)s2)cc1 | > 20 | inactive | > 20 | inactive | > 20 | inactive | 9.4 |
| O=S(=O)(NCCNC(=S)Nc1cc(C(F)(F)F)cc(C(F)(F)F)c1)c1ccc(-c2ccccc2O[C@H]2CC[C@@H](O)CC2)s1 | > 20 | inactive | 10.9 | inactive | 2.6 | inactive | 6.3 |
| COc1cccc(NC(=O)NCCNS(=O)(=O)c2sccc2-c2ccc(C)cc2Oc2ccc(O)c(O)c2)c1 | > 20 | inactive | > 20 | inactive | 3.6 | inactive | 7.5 |
| O=[N+]([O-])c1ccc(Oc2ccccc2-c2ccc(S(=O)(=O)NCCNC(=S)Nc3cccc(Cl)c3)s2)cc1 | 4.99 | inactive | 4.6 | inactive | > 50 | inactive | > 50 |
| Cc1cc(C)cc(NC(=O)NCCNS(=O)(=O)c2ccc(-c3ccccc3OCc3cccc(O)c3)s2)c1 | > 20 | inactive | > 20 | inactive | > 20 | inactive | 5.8 |
| COc1ccc(Oc2ccc(C(C)C)cc2-c2ccsc2S(=O)(=O)NCCNC(=O)Nc2cc(Cl)cc(Cl)c2)cc1OC | 11.9 | inactive | 11.6 | inactive | 6.5 | inactive | 9 |
| CC(C)c1ccc(Oc2ccc(O)c(O)c2)c(-c2ccsc2S(=O)(=O)NCCNC(=S)Nc2ccc([N+](=O)[O-])cc2)c1 | 16.3 | inactive | > 20 | inactive | 8.8 | inactive | 5.1 |
| O=S(=O)(NCCNC(=S)Nc1cc(C(F)(F)F)cc(C(F)(F)F)c1)c1ccc(-c2ccccc2OCc2ccccc2)s1 | 8.5 | inactive | 4.7 | inactive | 2.1 | inactive | > 50 |
| O=[N+]([O-])c1ccc(NC(=S)NCCNS(=O)(=O)c2ccc(-c3ccccc3O[C@H]3CC[C@@H](O)CC3)s2)cc1 | 20 | inactive | > 20 | inactive | > 50 | inactive | 9.4 |
| O=[N+]([O-])c1ccc(NC(=S)NCCNS(=O)(=O)c2ccc(-c3ccccc3O[C@H]3CC[C@H](O)CC3)s2)cc1 | 10.5 | inactive | 5.4 | inactive | 11.6 | inactive | 1.5 |
| O=S(=O)(NCCNC(=S)Nc1cc(C(F)(F)F)cc(C(F)(F)F)c1)c1ccc(-c2ccccc2OCc2cccc(O)c2)s1 | > 20 | inactive | 14.9 | inactive | > 50 | inactive | 12 |
| O=S(=O)(NCCNC(=S)Nc1cccc(Cl)c1)c1ccc(-c2ccccc2OCc2ccccc2)s1 | 10.2 | inactive | 8.4 | inactive | > 50 | inactive | > 50 |
| O=[N+]([O-])c1cccc(NC(=S)NCCNS(=O)(=O)c2ccc(-c3ccccc3OCc3cccc(O)c3)s2)c1 | 13.8 | inactive | 11.1 | inactive | 11.4 | inactive | 9.8 |
| O=C(NCCNS(=O)(=O)c1ccc(-c2ccccc2O[C@H]2CC[C@H](O)CC2)s1)Nc1cc(Cl)cc(Cl)c1 | > 50 | inactive | > 20 | inactive | > 20 | inactive | 14.1 |
| COc1cccc(NC(=O)NCCNS(=O)(=O)c2ccc(-c3ccccc3Oc3ccc([N+](=O)[O-])c([N+](=O)[O-])c3)s2)c1 | 17.8 | inactive | > 20 | inactive | 6.7 | inactive | 1.3 |
| COc1ccc(NC(=O)NCCNS(=O)(=O)c2sccc2-c2ccc(C)cc2Oc2ccc(O)c(O)c2)cc1 | > 20 | inactive | > 20 | inactive | 6.1 | inactive | 8.2 |
| COc1ccc(NC(=O)NCCNS(=O)(=O)c2ccc(-c3ccccc3Oc3ccc([N+](=O)[O-])c([N+](=O)[O-])c3)s2)cc1 | 18.5 | inactive | > 20 | inactive | 5.4 | inactive | 1.4 |
| O=S(=O)(NCCNC(=S)Nc1cccc(Cl)c1)c1ccc(-c2ccccc2OCc2cccc(O)c2)s1 | 17.4 | inactive | 10.7 | inactive | 1.8 | inactive | 5.8 |
| COc1ccc(Oc2ccc(C(C)C)cc2-c2ccsc2S(=O)(=O)NCCNC(=O)Nc2cc(C(F)(F)F)cc(C(F)(F)F)c2)cc1OC | 12.1 | inactive | 11.6 | inactive | 7.4 | inactive | 11.7 |
| O=C(NCCNS(=O)(=O)c1ccc(-c2ccccc2Oc2ccc([N+](=O)[O-])c([N+](=O)[O-])c2)s1)Nc1cc(C(F)(F)F)cc(C(F)(F)F)c1 | > 50 | inactive | > 50 | inactive | 1.9 | inactive | 2.4 |
